Assay results published in patent US20140378416A1, “SILYL-CONTAINING HETEROCYCLIC COMPOUNDS AND METHODS OF USE THEREOF FOR THE TREATMENT OF VIRAL DISEASES” (priority 2011, published 2014).
Read-outs that look alike come from different tables or passages of the source.

How the values were obtained:
HCV replicon 1a = experiment: Cell-based HCV replicon assay (TaqMan), genotype 1a replicon; settings: HCV 1a replicon cells, replicon RNA by TaqMan on day 3, EC90 = concentration for ΔCT=3.2 over baseline
Procedure: (§1) Measurement of inhibition by compounds of the present invention was performed using the HCV replicon system. Several different replicons encoding different HCV genotypes or mutations were used. In addition, potency measurements were made using different formats of the replicon assay, including different ways of measurements and different plating formats. See Jan M. Vrolijk et al., A replicons-based bioassay for the measurement of interferons in patients with chronic hepatitis C, 110 J. VIROLOGICAL METHODS 201 (2003); Steven S. Carroll et al., Inhibition of Hepatitis C Virus RNA Replication by 2′-Modified Nucleoside Analogs, 278(14) J. BIOLOGICAL CHEMISTRY 11979 (2003). However, the underlying principles are common to all of these determinations, and are outlined below.
(§2) Compounds of the present invention were assayed for cell-based anti-HCV activity using the following protocol. Replicon cells were seeded at 5000 cells/well in 96-well collagen I-coated Nunc plates in the presence of the test compound. Various concentrations of test compound, typically in 10 serial 2-fold dilutions, were added to the assay mixture, with the starting concentration ranging from 250 μM to 1 μM. The final concentration of DMSO was 0.5%, fetal bovine serum was 5%, in the assay media. Cells were harvested on day 3 by the addition of 1× cell lysis buffer (Ambion cat #8721). The replicon RNA level was measured using real time PCR (TaqMan® assay). The amplicon was located in 5B. The PCR primers were: 5B.2F, ATGGACAGGCGCCCTGA (SEQ. ID NO. 1); 5B.2R, […] (SEQ. ID NO. 2); the probe sequence was FAM-labeled CACGCCATGCGCTGCGG (SEQ. ID NO. 3). GAPDH RNA was used as endogenous control and was amplified in the same reaction as NS5B (multiplex PCR) using primers and VIC-labeled probe recommended by the manufacturer (PE Applied Biosystem). The real-time […] reactions were run on ABI PRISM 7900HT Sequence Detection System using the following program: 48° C. for 30 minutes, 95° C. for 10 minutes, 40 cycles of 95° C. for 15 sec, 60° C. for 1 minute. The ACT values (CT5B-CTGAPDH) were plotted against the concentration of test compound and fitted to the sigmoid dose-response model using XLfit4 (MDL). EC50 was defined as the concentration of inhibitor necessary to achieve ΔCT=1 over the projected baseline; EC90 the concentration necessary to achieve ΔCT=3.2 over the baseline. Alternatively, to quantitate the absolute amount of replicon RNA, a standard curve was established by including serially diluted T7 transcripts of replicon RNA in the Taqman assay. All TaqMan® reagents were from PE Applied Biosystems. Such an assay procedure was described in detail in e.g. Malcolm et al., Antimicrobial Agents and Chemotherapy 50: 1013-1020 (2006).
(§3) HCV replicon EC50 assay data for various replicons and mutants was calculated for selected compounds of the present invention using this method and is provided in the tables above herein.

HCV replicon 1b = experiment: Cell-based HCV replicon assay (TaqMan), genotype 1b replicon; settings: HCV 1b replicon cells, replicon RNA by TaqMan on day 3, EC90 = concentration for ΔCT=3.2 over baseline
Procedure: as §1, §2, §3

HCV replicon 1a Y93H = experiment: Cell-based HCV replicon assay (TaqMan), genotype 1a Y93H mutant replicon; settings: Hepatitis C virus, 72 h, read-out: 1a Y93H EC90, HCV 1a Y93H mutant replicon cells, replicon RNA by TaqMan on day 3; EC90 = concentration for ΔCT=3.2 over baseline
Procedure: as §1, §2, §3

HCV replicon 2b = experiment: Cell-based HCV replicon assay (TaqMan), genotype 2b replicon; settings: EC90 = concentration for ΔCT=3.2 over baseline
Procedure: as §1, §2, §3

[1] = Hepatitis C virus, 72 h, read-out: 2b EC90, HCV 2b replicon cells, replicon RNA by TaqMan on day 3

SMILES | EC90 (HCV replicon 1a; Hepatitis C virus, 72 h) | EC90 (HCV replicon 1b; Hepatitis C virus, 72 h) | EC90 (HCV replicon 1a Y93H) | EC90 (HCV replicon 2b; [1]) | EC90 (HCV replicon 1a) | EC90 (HCV replicon 1b) | EC90 (HCV replicon 2b; read-out: 2b EC90, HCV 2b replicon cells, replicon RNA by TaqMan on day 3)
COC(=O)N[C@H](C(=O)N1C[Si](C)(C)C[C@H]1c1ncc(-c2ccc(-c3ccc(-c4cnc([C@@H]5C[C@H]6C[C@H]6N5C(=O)[C@@H](NC(=O)OC)C(C)C)[nH]4)cc3)cc2)[nH]1)C(C)C [Compound 8] | 0.029 nM | 0.002 nM | > 100 nM | 249 nM |  |  | 
CC[C@H](NC(=O)OC)C(=O)N1CCC[C@H]1c1ncc(-c2ccc(-c3ccc(-c4cnc([C@@H]5C[Si](C)(C)CN5C(=O)[C@H](CC)NC(=O)OC)[nH]4)cc3)cc2)[nH]1 [Compound 12] | 0.187 nM | 18.1 nM | 694 nM | 535 nM |  |  | 
COC(=O)N[C@@H](Cc1ccccc1)C(=O)N1CCC[C@H]1c1ncc(-c2ccc(-c3ccc(-c4cnc([C@@H]5C[Si](C)(C)CN5C(=O)[C@H](Cc5ccccc5)NC(=O)OC)[nH]4)cc3)cc2)[nH]1 [Compound 13] | 29.8 nM | 923 nM | 1000 nM | 1000 nM |  |  | 
CC[C@H](C)[C@H](NC(=O)OC)C(=O)N1CCC[C@H]1c1ncc(-c2ccc(-c3ccc(-c4cnc([C@@H]5C[Si](C)(C)CN5C(=O)[C@@H](NC(=O)OC)[C@@H](C)CC)[nH]4)cc3)cc2)[nH]1 [Compound 14] |  |  | 1000 nM |  | 3.22 nM | 23.8 nM | 1000 nM
CCC[C@H](NC(=O)OC)C(=O)N1CCC[C@H]1c1ncc(-c2ccc(-c3ccc(-c4cnc([C@@H]5C[Si](C)(C)CN5C(=O)[C@H](CCC)NC(=O)OC)[nH]4)cc3)cc2)[nH]1 [Compound 15] | 2.43 nM | 45.8 nM | 542 nM | 515 nM |  |  | 
COC(=O)N[C@H](Cc1c[nH]c2ccccc12)C(=O)N1CCC[C@H]1c1ncc(-c2ccc(-c3ccc(-c4cnc([C@@H]5C[Si](C)(C)CN5C(=O)[C@@H](Cc5c[nH]c6ccccc56)NC(=O)OC)[nH]4)cc3)cc2)[nH]1 [Compound 16] | 1000 nM | 1000 nM | 500 nM | 1000 nM |  |  | 
COC(=O)N[C@@H](Cc1c[nH]c2ccccc12)C(=O)N1CCC[C@H]1c1ncc(-c2ccc(-c3ccc(-c4cnc([C@@H]5C[Si](C)(C)CN5C(=O)[C@H](Cc5c[nH]c6ccccc56)NC(=O)OC)[nH]4)cc3)cc2)[nH]1 [Compound 17] | 9.36 nM | 1000 nM | 1000 nM | 1000 nM |  |  | 
COC(=O)N[C@@H](C)C(=O)N1CCC[C@@H]1c1ncc(-c2ccc(-c3ccc(-c4cnc([C@H]5C[Si](C)(C)CN5C(=O)[C@H](C)NC(=O)OC)[nH]4)cc3)cc2)[nH]1 [Compound 18] | 988 nM | 1000 nM | 1000 nM | 1000 nM |  |  | 
COC(=O)N[C@H](C(=O)N1CCC[C@@H]1c1ncc(-c2ccc(-c3ccc(-c4cnc([C@H]5C[Si](C)(C)CN5C(=O)[C@@H](NC(=O)OC)c5ccccc5)[nH]4)cc3)cc2)[nH]1)c1ccccc1 [Compound 19] | 25.5 nM | 11 nM | 1000 nM | 999 nM |  |  | 
COC(=O)NC1(C(=O)N2CCC[C@@H]2c2ncc(-c3ccc(-c4ccc(-c5cnc([C@H]6C[Si](C)(C)CN6C(=O)C6(NC(=O)OC)CC6)[nH]5)cc4)cc3)[nH]2)CC1 [Compound 20] | 1000 nM | 1000 nM | 1000 nM | 1000 nM |  |  | 
COC(=O)NC1(C(=O)N2CCC[C@H]2c2ncc(-c3ccc(-c4ccc(-c5cnc([C@@H]6C[Si](C)(C)CN6C(=O)C6(NC(=O)OC)CCC6)[nH]5)cc4)cc3)[nH]2)CCC1 [Compound 31] |  | 2.2 nM | > 1000 nM | > 1000 nM |  |  | 
